Assay results taken from US20230087118A1, “IMIDAZO[1,2-a][sequence] DERIVATIVES AND THEIR USE IN THE TREATMENT OF DISEASE” (priority 2019, published 2023).

Assays:
IRAK4 [1] = biological target: T1, IRAK4 (Homo sapiens, UniProt Q9NWZ3); test: biochemical
T1 sequence (Q9NWZ3 1-460): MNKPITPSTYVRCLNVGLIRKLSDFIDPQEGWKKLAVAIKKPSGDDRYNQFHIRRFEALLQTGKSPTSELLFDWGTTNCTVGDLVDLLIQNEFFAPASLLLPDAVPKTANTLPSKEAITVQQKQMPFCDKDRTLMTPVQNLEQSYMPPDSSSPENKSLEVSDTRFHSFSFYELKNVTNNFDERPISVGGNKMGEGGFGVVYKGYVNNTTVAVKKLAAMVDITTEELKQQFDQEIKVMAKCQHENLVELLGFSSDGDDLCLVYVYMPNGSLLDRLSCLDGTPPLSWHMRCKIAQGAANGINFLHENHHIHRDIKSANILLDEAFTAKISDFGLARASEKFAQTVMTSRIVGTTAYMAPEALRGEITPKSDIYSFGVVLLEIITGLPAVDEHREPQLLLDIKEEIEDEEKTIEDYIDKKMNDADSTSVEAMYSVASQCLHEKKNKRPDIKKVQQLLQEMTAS

IRAK4 [2] = biological target: T1, IRAK4; test: 2-hour 10 μM ATP Biochemical Assay (MesoScale Detection format; IRAK4 phosphorylation of biotin labeled IRAK1 activation loop peptide); settings: 0.1 nM IRAK4
Experimental: Compounds of the invention were assessed for their ability to inhibit IRAK4 activity. The inhibitory properties of the compounds of the invention described herein can be evidenced by testing in any one of the following assays.
The 2-hour 10 μM ATP Biochemical Assay employs a MesoScale Detection (MSD) format. The kinase reaction is based on the IRAK4 phosphorylation of a biotin labeled peptide (IRAK1 activation loop sequence 360-389).
The kinase reaction in 30 μl is carried out in wells of a 384 well polypropylene assay plate, with 0.1 nM IRAK4, 1.6 μM of biotinylated peptide substrate and 10 μM ATP in 50 mM Hepes, pH 7.5, 60 mM NaCl, 5 mM MgCl2, 0.25 mM MnCl2, 2 mM DTT, 0.01% BSA, and 1% DMSO (from compound DMSO stocks), for 2 hour at room temperature. The activity is quenched with 11 μl of 70 mM EDTA, pH 8.
To detect the phosphorylated biotinylated peptide substrate, 30 μl of the quenched reaction mixture is added to equivalent wells of a 384 well streptavidin coated MesoScale plate (Meso Scale Discovery #L21SA-1). After a 1 hour incubation of the plate for 1 hour at room temperature with gentle mixing, the plate wells are washed 3 times with 50 mM Tris, pH 7.5, 150 mM NaCl, 0.02% Tween-20.
A 25 μl volume of 1:500 anti-P-Threonine Rabbit polyclonal Antibody plus 1:500 Goat-anti-Rabbit Sulfo Tag Antibody (Meso Scale Discovery R32AB-1) in 50 mM Tris, pH 7.5, 150 mM NaCl, 0.02% Tween-20 plus 2% BSA is then added to each well. After a 1-hour incubation of the plate for 1 hour at room temperature with gentle mixing, the plate wells are washed, 3 times with 50 mM Tris, pH 7.5, 150 mM NaCl, 0.02% Tween-20. A 40 μl volume of 2× MSD Read Buffer (Meso Scale Discovery R92TC-1) is added to each well, and the plate is read immediately in an MSD Plate Reader (Meso Scale Discovery).

[3] = IRAK4 Biochemical Assay (1 mM ATP, 2 h) IC50 (μM), 1 mM ATP, 2 h, 100 pM IRAK4

| Compound | IC50 (IRAK4 [1]; [3]) | IC50 (IRAK4 [2]) | IC50 (IRAK4 [1]) |
| --- | --- | --- | --- |
| COc1cc2nc(C3CCOCC3)cn2cc1C(=O)Nc1ccn(C(F)F)n1 [Example 48] | 0.04 µM | 13 nM |  |
| COc1cc2nc(C3CCOCC3)cn2cc1C(=O)Nc1cccc(C(F)(F)F)c1 [Example 158] |  | 8 nM | 0.0257 µM |
| COc1cc2nc(C3CC(OC)C3)cn2cc1C(=O)Nc1cccc(C(F)(F)F)n1 (stereo not shown) [Example 36] | 0.0262 µM | 8 nM |  |
| COc1cc2nc(C3CCOCC3)cn2cc1C(=O)Nc1cccc2c1OCC2 [Example 179] |  | 4 nM | 0.0089 µM |
| COc1cccc(NC(=O)c2cn3cc(C4CCOCC4)nc3cc2OC)n1 [Example 21] |  | 3 nM | 0.0085 µM |
| COc1cc2nc(C3CCOCC3)cn2cc1C(=O)Nc1cccc(Cl)c1C [Example 174] |  | 7 nM | 0.0477 µM |
| COc1cc2nc(C3CC34CCOCC4)cn2cc1C(=O)Nc1cccc(C(F)(F)F)n1 (stereo not shown) [Example 40] | 0.0305 µM | 9 nM |  |
| COc1cc2nc(C3CCOCC3)cn2cc1C(=O)Nc1cccc(C(F)(F)F)c1C [Example 142] |  | 14 nM | 0.0383 µM |
| COc1cccc(NC(=O)c2cn3cc(C4CC45CCCCO5)nc3cc2OC)n1 (stereo not shown) [Example 9] | 0.0242 µM | 9 nM |  |
| COc1cc2nc(C3CCOCC3)cn2cc1C(=O)Nc1cccc(Cl)c1OC [Example 170] |  | 2 nM | 0.0053 µM |
| COc1cccc(NC(=O)c2cn3cc(C4CC5(CCOC5)C4)nc3cc2OC)n1 (stereo not shown) [Example 11] | 0.0034 µM | 2 nM |  |
| COc1cc2nc(C3CCOC(C)(C)C3)cn2cc1C(=O)Nc1cccc(C(F)(F)F)n1 (stereo not shown) [Example 43] | 0.0032 µM | 2 nM |  |
| COc1cc2nc(C3CCOCC3)cn2cc1C(=O)Nc1cccc(C(F)(F)F)n1 [Example 203] |  | 4 nM | 0.0096 µM |
| COc1cc2nc(C3CCOCC3)cn2cc1C(=O)Nc1cccc(C(F)F)c1 [Example 125] |  | 4 nM | 0.0129 µM |
| COc1cc2nc(CC3CCOC3)cn2cc1C(=O)Nc1cccc(C(F)(F)F)n1 (stereo not shown) [Example 33] |  | 5 nM | 0.014 µM |
| COc1cc2nc(C3CCOCC3)cn2cc1C(=O)Nc1cccc2c1CCCC2 [Example 118] |  | 4 nM | 0.0174 µM |
| CCOc1cc2nc(C[C@@H]3CCOC3)cn2cc1C(=O)Nc1cccc(C(F)F)n1 [Example 65, N-[6-(difluoromethyl)-2-pyridyl]-7-ethoxy-2-[[(3R)-tetrahydrofuran-3-yl]methyl]imidazo[1,2-a]pyridine-6-carboxamide] |  | 1 nM | 0.0015 µM |
| COc1cc2nc(C3C4COCC43)cn2cc1C(=O)Nc1cccc(C(F)(F)F)n1 (stereo not shown) [Example 32] |  | 8 nM | 0.013 µM |
| COc1cc2nc(C3CCOCC3)cn2cc1C(=O)Nc1cccc(C(F)(F)CF)c1 [Example 122] |  | 15 nM | 0.0579 µM |

Continued, values first:

| IC50 (IRAK4 [1]; [3]) | IC50 (IRAK4 [2]) | IC50 (IRAK4 [1]) | Compound |
| --- | --- | --- | --- |
| 0.0401 µM | 13 nM |  | COc1cc2nc(CC3CCOCC3)cn2cc1C(=O)Nc1cccc(C(F)(F)F)n1 [Example 45] |
|  | 5 nM | 0.0134 µM | CCOc1cc2nc(C(C)(C)C#N)cn2cc1C(=O)Nc1cccc(C(F)F)n1 [Example 74] |
|  | 8 nM | 0.0245 µM | COc1cc2nc(C3CCOCC3)cn2cc1C(=O)Nc1cccc(CF)c1 [Example 141] |
|  | 9 nM | 0.0311 µM | COc1cc2nc(C3CCOCC3)cn2cc1C(=O)Nc1ccccn1 [Example 146] |
|  | 1 nM | 0.0016 µM | COc1cc2nc(C3CCOCC3)cn2cc1C(=O)Nc1cccc2c1OCCC2 [Example 162] |
|  | 4 nM | 0.016 µM | COc1cc2nc(C3CCOCC3)cn2cc1C(=O)Nc1cccc(F)c1Cl [Example 173] |
|  | 5 nM | 0.018 µM | COc1cccc(NC(=O)c2cn3cc(C4C5COCC54)nc3cc2OC)n1 (stereo not shown) [Example 22] |
|  | 12 nM | 0.0296 µM | COc1cc2nc(C3CCOCC3)cn2cc1C(=O)Nc1cc(F)cc(C(F)F)c1 [Example 169] |
| 0.0048 µM | 2 nM |  | COc1cc2nc(C3CC4(CCOC4)C3)cn2cc1C(=O)Nc1cccc(C(F)(F)F)n1 (stereo not shown) [Example 38] |
|  | 10 nM | 0.0354 µM | COc1cc2nc(C3CCOCC3)cn2cc1C(=O)Nc1cccc(C)c1 [Example 143] |
|  | 14 nM | 0.0645 µM | COc1cc2nc(C3CCOCC3)cn2cc1C(=O)Nc1cscc1C [Example 135] |
|  | 3 nM | 0.0092 µM | COc1cc2nc(C3CCOCC3)cn2cc1C(=O)Nc1cccc2c1CCC2 [Example 121] |
| 0.0253 µM | 9 nM |  | COc1cc2nc(C34CC(C#N)(C3)C4)cn2cc1C(=O)Nc1cccc(C(F)(F)F)n1 [Example 37] |
